Assay results as given in patent US20230279001A1, “IMIDAZO[1,2-A]PYRIDINE COMPOUNDS FOR THE TREATMENT OF AUTOIMMUNE DISEASE” (Hoffmann-La Roche Inc., priority 2020, published 2023).

Experiments:
[1] = target: human TLR7 (Homo sapiens (Human), UniProt Q9NYK1); assay: HEK293-Blue-hTLR-7 cells assay; format: cell-based; conditions: HEK293-Blue-hTLR7 cells, R848 stimulation, 20 hrs, SEAP reporter; read-out: HEK/hTLR7 IC50
Excerpt: (§1) A stable HEK293-Blue-hTLR-7 cell line was purchased from InvivoGen (Cat. #: hkb-htlr7, San Diego, Calif., USA). These cells were originally designed for studying the stimulation of human TLR7 by monitoring the activation of NF-κB. A SEAP (secreted embryonic alkaline phosphatase) reporter gene was placed under the control of the IFN-β minimal promoter fused to five NF-κB and AP-1-binding sites. The SEAP was induced by activating NF-κB and AP-1 via stimulating HEK-Blue hTLR7 cells with TLR7 ligands. Therefore the reporter expression was declined by TLR7 antagonist under the stimulation of a ligand, such as R848 (Resiquimod), for incubation of 20 hrs. The cell culture supernatant SEAP reporter activity was determined using QUANTI-Blue™ kit (Cat. #: rep-qb1, Invivogen, San Diego, Ca, USA) at a wavelength of 640 nm, a detection medium that turns purple or blue in the presence of alkaline phosphatase.
HEK293-Blue-hTLR7 cells were incubated at a density of 250,000˜450,000 cells/mL in a volume of 170 μL in a 96-well plate in Dulbecco's Modified Eagle's medium (DMEM) containing 4.5 g/L glucose, 50 U/mL penicillin, […], […], 2 mM L-glutamine, 10% (v/v) heat-inactivated fetal bovine serum with addition of 20 μL test compound in a serial dilution in the presence of final DMSO at 1% and 10 μL of 20 uM R848 in above DMEM, perform incubation under 37° C. in a CO2 incubator for 20 hrs. Then 20 μL of the supernatant from each well was incubated with 180 μL Quanti-blue substrate solution at 37° C. for 2 hrs and the absorbance was read at 620-655 nm using a spectrophotometer. The signaling pathway that TLR7 activation leads to downstream NF-κB activation has been widely accepted, and therefore similar reporter assay was modified for evaluating TLR7 antagonist.

[2] = target: T1, TLR9 (Homo sapiens (Human), UniProt Q9NR96); assay: HEK293-Blue-hTLR-9 cells assay; format: cell-based; conditions: HEK293-Blue-hTLR9 cells, ODN2006 stimulation, 20 hrs, SEAP reporter; read-out: HEK/hTLR9 IC50
T1 sequence (Q9NR96 26-1032): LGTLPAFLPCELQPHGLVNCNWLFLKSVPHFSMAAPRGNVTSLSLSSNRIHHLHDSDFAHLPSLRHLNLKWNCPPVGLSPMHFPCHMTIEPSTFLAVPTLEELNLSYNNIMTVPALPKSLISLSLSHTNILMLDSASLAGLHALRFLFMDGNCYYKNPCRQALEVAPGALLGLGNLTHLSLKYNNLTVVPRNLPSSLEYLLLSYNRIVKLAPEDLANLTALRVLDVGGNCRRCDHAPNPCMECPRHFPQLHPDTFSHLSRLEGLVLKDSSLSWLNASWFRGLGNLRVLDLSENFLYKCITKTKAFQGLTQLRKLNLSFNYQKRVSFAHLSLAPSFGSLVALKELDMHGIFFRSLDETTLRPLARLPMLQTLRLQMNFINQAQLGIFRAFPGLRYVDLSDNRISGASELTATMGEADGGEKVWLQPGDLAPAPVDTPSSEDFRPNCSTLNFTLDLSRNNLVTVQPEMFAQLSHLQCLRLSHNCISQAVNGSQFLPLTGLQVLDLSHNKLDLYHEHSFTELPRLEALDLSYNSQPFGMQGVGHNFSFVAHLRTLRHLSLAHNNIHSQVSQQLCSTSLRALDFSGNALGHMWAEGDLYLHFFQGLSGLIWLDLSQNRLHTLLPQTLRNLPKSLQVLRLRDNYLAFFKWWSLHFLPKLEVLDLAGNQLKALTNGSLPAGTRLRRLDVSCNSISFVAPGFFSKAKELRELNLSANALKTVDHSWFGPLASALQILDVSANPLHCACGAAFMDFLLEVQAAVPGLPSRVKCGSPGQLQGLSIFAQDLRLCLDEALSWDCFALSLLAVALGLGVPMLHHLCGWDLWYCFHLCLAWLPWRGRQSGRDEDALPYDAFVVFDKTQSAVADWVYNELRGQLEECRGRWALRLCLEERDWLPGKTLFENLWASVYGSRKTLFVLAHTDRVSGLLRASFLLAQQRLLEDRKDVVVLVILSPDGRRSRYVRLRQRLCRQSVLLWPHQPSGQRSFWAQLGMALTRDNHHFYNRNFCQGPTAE
Excerpt: as §1, with “HEK293-Blue-hTLR-9” for “HEK293-Blue-hTLR-7”, “hkb-htlr9,” for “hkb-htlr7,”, “TLR9” for “TLR7”, “hTLR9” for “hTLR7”, “ODN2006 (Cat. #: tlr1-2006-1, Invivogen, San Diego, Calif., USA),” for “R848 (Resiquimod),”, “Calif.,” for “Ca,”
HEK293-Blue-hTLR9 cells were incubated at a density of 250,000˜450,000 cells/mL in a volume of 170 μL in a 96-well plate in Dulbecco's Modified Eagle's medium (DMEM) containing 4.5 g/L glucose, 50 U/mL penicillin, […], 2 mM L-glutamine, 10% (v/v) heat-inactivated fetal bovine serum with addition of 20 μL test compound in a serial dilution in the presence of final DMSO at 1% and 10 μL, of 20 uM ODN2006 in above DMEM, perform incubation under 37° C. in a CO2 incubator for 20 hrs. Then 20 μL of the supernatant from each well was incubated with 180 μL, Quanti-blue substrate solution at 37° C. for 2 h and the absorbance was read at 620655 nm using a spectrophotometer. The signaling pathway that TLR9 activation leads to downstream NF-κB activation has been widely accepted, and therefore similar reporter assay was modified for evaluating TLR9 antagonist.

[3] = target: T1, TLR9; assay: Human PBMC cell-based assay, TLR9; conditions: CpG ODN 2216 at 1 μM, overnight, cytokine readout, read-out: hPBMC/TLR9 IC50
Excerpt: Unlike the HEK reporter cell lines, human peripheral blood mononuclear cell (PBMC) represents primary human immune cells in blood mainly consisting of lymphocytes, monocytes, and dendritic cells. These cells express TLR7, TLR8, or TLR9, and therefore are natural responders to respective ligand stimulation. Upon activation of these TLRs, PBMCs secrete similar cytokines and chemokines in vitro and in vivo, and therefore the in vitro potency of a TLR7/8/9 antagonist in human PBMC is readily translatable to its pharmacodynamics response in vivo.
Human peripheral blood mononuclear cells (PBMC) were isolated from freshly-drawn lithium-heparinized (Lithium Heparin Plus blood Collection tube, BD Vacutainer®) healthy donor whole blood by density gradient (Ficoll-Paque™ PLUS, GE Healthcare life Sciences). Briefly, […] was diluted with 25 mL PBS (without Ca^2+, Mg^2+) in a 50 mL conical tube with porous barrier (Leucosep tube, Greiner bio-one), where 15.5 mL Ficoll-Paque was under laid after spinning. Tubes were centrifuged for 20 minutes at 800×g (1946 rpm) with the brake in the off position, and PBMC were collected from the buffy coat. Cells were then washed twice in PBS, and red blood cells were lysed by suspension in 2 mL (Red Blood Cell Lysis Buffer, Alfa Aesar) for 5-10 minutes at room temperature. After a final wash in PBS, PBMC were resuspended at a final concentration of 2×10^6 cells/mL in RPMI-1640 media with GlutaMAX™ (Gibco) supplemented with 10% Fetal Bovine Serum (Sigma) and plated at 150 μL/well (3×10^5 cells/well) in tissue culture treated round bottom 96-well plates (Corning Incorporated). Antagonist compounds (compounds of this invention) solubilized and serial diluted in 100% DMSO were added in duplicate to cells to yield a final concentration of 1% DMSO (v/v). PBMC were incubated with antagonist compounds for 30 minutes at 37° C., 5% CO2 before adding various TLR agonist reagents in 48 μL complete media per well as follows (final concentrations indicated): CpG ODN 2216 (InvivoGen) at 1 μM for TLR9, ORN 06/LyoVec (InvivoGen) at 1 μg/mL for TLR8 and R848 (InvivoGen) at 1 μg/mL for TLR7 and TLR8. PBMC were incubated overnight at 37° C. with 5% CO2. Cell culture supernatants were collected, and levels of various human cytokines were assessed by Luminex assay (ProcartaPlex™ Multiplex Immunoassay, Invitrogen) or ELISA procedure according to the manufacturer's recommended protocol (eBioscience, ThermoFisher Scientific). Viability of the cells was also checked with Cell Viability Assay (CellTiter Glo®Luminescent Cell Viability Assay, Promega).

Sequence of human TLR7 (Q9NYK1 27-1049): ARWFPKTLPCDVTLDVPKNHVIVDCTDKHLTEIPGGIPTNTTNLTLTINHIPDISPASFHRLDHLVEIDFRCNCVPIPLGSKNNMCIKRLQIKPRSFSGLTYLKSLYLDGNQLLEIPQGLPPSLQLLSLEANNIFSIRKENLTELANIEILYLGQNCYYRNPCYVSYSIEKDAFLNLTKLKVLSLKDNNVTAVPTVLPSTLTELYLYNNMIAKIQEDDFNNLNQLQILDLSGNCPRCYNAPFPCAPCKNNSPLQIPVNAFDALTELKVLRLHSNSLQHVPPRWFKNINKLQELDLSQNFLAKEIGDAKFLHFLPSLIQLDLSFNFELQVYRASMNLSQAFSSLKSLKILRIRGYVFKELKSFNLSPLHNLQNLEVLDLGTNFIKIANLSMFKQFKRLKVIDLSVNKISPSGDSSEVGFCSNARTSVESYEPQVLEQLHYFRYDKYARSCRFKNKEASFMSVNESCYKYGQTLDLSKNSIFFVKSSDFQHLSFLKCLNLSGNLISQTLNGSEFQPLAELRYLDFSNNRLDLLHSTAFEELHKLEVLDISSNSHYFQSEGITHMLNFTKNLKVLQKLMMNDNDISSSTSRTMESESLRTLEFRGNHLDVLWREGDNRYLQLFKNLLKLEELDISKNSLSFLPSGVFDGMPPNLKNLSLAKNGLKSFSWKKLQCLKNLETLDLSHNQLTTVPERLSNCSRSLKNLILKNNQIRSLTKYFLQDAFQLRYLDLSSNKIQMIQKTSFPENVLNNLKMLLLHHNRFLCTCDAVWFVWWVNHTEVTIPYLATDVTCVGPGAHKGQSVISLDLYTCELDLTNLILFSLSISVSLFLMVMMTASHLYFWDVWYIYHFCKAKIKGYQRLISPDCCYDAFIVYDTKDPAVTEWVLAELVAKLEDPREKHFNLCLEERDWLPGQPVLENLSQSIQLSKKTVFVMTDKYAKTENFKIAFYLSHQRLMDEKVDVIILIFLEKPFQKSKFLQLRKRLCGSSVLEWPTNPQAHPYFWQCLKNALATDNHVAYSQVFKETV

| Compound | IC50 [1] [nM] | IC50 [2] [nM] | IC50 [3] [nM] |
| --- | --- | --- | --- |
| CCc1cc(-c2cc(C)c3nccn3c2)cnc1N1CCC2(CCNCC2)CC1 [Example 22, 3-[3-ethyl-5-(8-methylimidazo[1,2-a]pyridin-6-yl)-2-pyridyl]-3,9-diazaspiro[5.5]undecane] | 3.3 | 132 | – |
| CCc1nc(N2CCC(C)(N)CC2)ccc1-c1cc(C)c2nc(C)cn2c1 [Example 20, 1-[5-(2,8-dimethylimidazo[1,2-a]pyridin-6-yl)-6-ethyl-2-pyridyl]-4-methyl-piperidin-4-amine] | 35.8 | 108 | 500 |
| Cc1c(-c2ccc(N3CCC(N4CCNCC4)CC3)nc2C(C)C)cn2ccnc2c1C [Example 7, 6-[2-isopropyl-6-(4-piperazin-1-yl-1-piperidyl)-3-pyridyl]-7,8-dimethyl-imidazo[1,2-a]pyridine] | 22.7 | 112 | – |
| Cc1cc(-c2ccc(N3CCC(N4CCNCC4)CC3)nc2C(C)C)cn2ccnc12 [Example 2, 6-[2-isopropyl-6-(4-piperazin-1-yl-1-piperidyl)-3-pyridyl]-8-methyl-imidazo[1,2-a]pyridine] | 1.6 | 151 | – |
| Cc1cn2cc(-c3ccc(N4CCN5CCNCC5C4)nc3C(C)C)cc(C)c2n1 (centres unmarked) [Example 8, 2-[5-(2,8-dimethylimidazo[1,2-a]pyridin-6-yl)-6-isopropyl-2-pyridyl]-1,3,4,6,7,8,9,9a-octahydropyrazino[1,2-a]pyrazine] | 6.7 | 294 | – |
| COc1nc(N2CCC(N3CCNCC3)CC2)ccc1-c1cc(C)c2nccn2c1 [Example 25, 6-[2-methoxy-6-(4-piperazin-1-yl-1-piperidyl)-3-pyridyl]-8-methyl-imidazo[1,2-a]pyridine] | 6.9 | 92 | 130 |
| CCc1nc(N2CCC(N3C[C@@H](N)[C@H](OC)C3)CC2)ccc1-c1cc(C)c2nccn2c1 [Example 15, (3R,4R)-1-[1-[6-ethyl-5-(8-methylimidazo[1,2-a]pyridin-6-yl)-2-pyridyl]-4-piperidyl]-4-methoxy-pyrrolidin-3-amine] | 2.7 | 286 | 470 |
| Cc1cn2cc(-c3ccc(N4CCC(N)CC4)nc3C(C)C)cc(C)c2n1 [Example 4, 1-[5-(2,8-dimethylimidazo[1,2-a]pyridin-6-yl)-6-isopropyl-2-pyridyl]piperidin-4-amine] | 8.9 | 154 | – |
| CCc1nc(N2CCC(N3CCNCC3)CC2)ccc1-c1cc(C)c2nc(C)cn2c1 [Example 21, 6-[2-ethyl-6-(4-piperazin-1-yl-1-piperidyl)-3-pyridyl]-2,8-dimethyl-imidazo[1,2-a]pyridine] | 5.9 | 140 | – |
| Cc1cn2cc(-c3ccc(N4CCNC[C@H]4CO)nc3C(C)C)cc(C)c2n1 [Example 5, [(2S)-1-[5-(2,8-dimethylimidazo[1,2-a]pyridin-6-yl)-6-isopropyl-2-pyridyl]piperazin-2-yl]methanol] | 21.4 | 227 | – |
| CCc1nc(N2CCC(N3C[C@@H](N)[C@H](OC)C3)CC2)ccc1-c1cc(C)c2nc(C)cn2c1 [Example 17, (3R,4R)-1-[1-[5-(2,8-dimethylimidazo[1,2-a]pyridin-6-yl)-6-ethyl-2-pyridyl]-4-piperidyl]-4-methoxy-pyrrolidin-3-amine] | 17.3 | 224 | 100 |
| Cc1cc(-c2cc(C)c3nccn3c2)cnc1N1CCC(N2CCN(C)CC2)CC1 [Example 9, 8-methyl-6-[5-methyl-6-[4-(4-methylpiperazin-1-yl)-1-piperidyl]-3-pyridyl]imidazo[1,2-a]pyridine] | 13.2 | 169 | 500 |
| CCc1nc(N2CCC(N3CC4(CNCCO4)C3)CC2)ccc1-c1cc(C)c2nccn2c1 [Example 14, 2-[1-[6-ethyl-5-(8-methylimidazo[1,2-a]pyridin-6-yl)-2-pyridyl]-4-piperidyl]-5-oxa-2,8-diazaspiro[3.5]nonane] | 3.9 | 216 | 250 |
| Cc1cc(-c2ccc(N3CCC(N4CCNCC4)CC3)nc2C(F)F)cn2ccnc12 [Example 10, 6-[2-(difluoromethyl)-6-(4-piperazin-1-yl-1-piperidyl)-3-pyridyl]-8-methyl-imidazo[1,2-a]pyridine] | 1.9 | 217 | – |
| Cc1cn2cc(-c3ccc(N4CCC(N5CCNCC5)CC4)nc3C(C)C)cc(C)c2n1 [Example 3, 6-[2-isopropyl-6-(4-piperazin-1-yl-1-piperidyl)-3-pyridyl]-2,8-dimethyl-imidazo[1,2-a]pyridine] | 5.8 | 198 | – |
| Cc1cn2cc(-c3ccc(N4CCC(N5CC(C)(N)C5)CC4)nc3C(F)F)cc(C)c2n1 [Example 12, 1-[1-[6-(difluoromethyl)-5-(2,8-dimethylimidazo[1,2-a]pyridin-6-yl)-2-pyridyl]-4-piperidyl]-3-methyl-azetidin-3-amine] | 16.3 | 145 | 290 |
| Cc1cn2cc(-c3ccc(N4CCC(N5CCNCC5)CC4)nc3C(F)F)cc(C)c2n1 [Example 11, 6-[2-(difluoromethyl)-6-(4-piperazin-1-yl-1-piperidyl)-3-pyridyl]-2,8-dimethyl-imidazo[1,2-a]pyridine] | 16.3 | 111 | – |
